Assay results: patent US20050276764A1, “Topical use of bis-arylimidazo[1,2-a]thiolane derivatives” (Beiersdorf AG, priority 2002, published 2005)

Assays:
Type in all cases: cell-based
3T3 cells = assay: 3T3 NRU Phototoxicity Assay (COLIPA Validation Ring Study 1997), neutral red absorption; conditions: for NR50 irradiated / NR50 non-irradiated: 3T3 cells, concentration at which neutral red absorption has fallen to 50% of the check value; for NR50 irradiated: UV-irradiated cultures; for NR50 non-irradiated: non-irradiated cultures; for Quotient non-irradiated/irradiated PIF: ratio of NR50 non-irradiated to irradiated, the lower the quotient, the lower the phototoxicity; for Phototoxicity in comparison to the non-oxidized comparative compound: photocytotoxicity tests, versus 4,5-bis(4-methoxyphenyl)-imidazo[1,2-a]thiolane
Protocol: The photocytotoxicity of 4,5-bis(4-methoxyphenyl)-imidazo[1,2-a]thiolane-1-oxide and 4,5-bis(4-methoxyphenyl)-imidazo[1,2-a]thiolane-1-dioxide in comparison to 4,5-bis(4-methoxyphenyl)-imidazo[1,2-a]thiolane according to standard protocol “3T3 NRU Phototoxicity Assay” of the COLIPA Validation Ring Study of 1997 is shown in FIG. 1.
In the test method used, the change to the neutral red absorption of 3T3 cells is measured by UV irradiation. Only vital cells absorb the dye, a reduced absorption thus indicates a toxicity of the test substance added. The so-called NR50 value is typically determined for evaluation, i.e. those concentrations of the test substance for which the neutral red absorption has fallen to 50% of the check value. In order to determine the phototoxicity, this value is determined for non-irradiated and irradiated cultures and put in a ratio. The lower the quotient, the lower the phototoxicity (see Table 1).

[1] = system: prostaglandin E2 (PGE2) production in human fibroblasts stimulated with LPS; assay: Inhibition of LPS-induced PGE2 production in human fibroblasts; conditions: for Inhibition of PGE2 production: human fibroblasts, LPS-stimulated, supernatant PGE2 24 hours later, FIG. 2
Protocol: The influence of 4,5-bis(4-methoxyphenyl)-imidazo[1,2-a]thiolane-1-oxide and 4,5-bis(4-Methoxyphenyl)-imidazo[1,2-a]thiolane-1-dioxide in comparison to 4,5-bis(4-methoxyphenyl)-imidazo[1,2-a]thiolane on eicosanoid production is illustrated in FIG. 2. For the samples in FIG. 2, human fibroblasts were stimulated with LPS and 24 hours later the supernatant PGE2 content was determined. Either Diclofenac with standard effects or dilutions of DKH derivatives were added to the LPS-stimulated cultures. Non-stimulated cultures and cultures only stimulated with LPS were measured as a control test.
Human fibroblasts in culture were induced to release prostaglandin E2 (PGE2) by means of lipopolysaccharide (LPS). Inhibition of this PGE2 production by imidazoles was then determined in the test.

[2] = system: LTB4 release by human neutrophile granulocytes stimulated with fMLP; assay: Release of LTB4 by fMLP-stimulated human neutrophile granulocytes; conditions: for Inhibition of LTB4 release: human neutrophile granulocytes, fMLP-stimulated, supernatant LTB4 2 hours later, FIG. 3
Protocol: A second test method was used to determine the influence of imidazoles on the release of LTB4 by stimulated granulocytes. Human neutrophile granulocytes from the peripheral blood were isolated, cultured and stimulated for LTB4 production with formylated methionyl-leucyl-phenylalanine (fMLP). Specifically, human neutrophile granulocytes were stimulated with fMLP and 2 hours later the supernatant LTB4 content was determined. Either BayX1005 with standard effects or dilutions of DKH derivatives were added to the fMLP-stimulated cultures. Non-stimulated cultures and cultures only stimulated with fMLP were measured as a control test.

COc1ccc(-c2nc3n(c2-c2ccc(OC)cc2)CCS3)cc1 [4,5-bis(4-methoxyphenyl)-imidazo[1,2-a]thiolane, reference compound]
NR50 irradiated (3T3 cells): 0.177 mg/L | NR50 non-irradiated (3T3 cells): >10 mg/L | Quotient non-irradiated/irradiated PIF (3T3 cells): >56

COc1ccc(-c2nc3n(c2-c2ccc(OC)cc2)CCS3(=O)=O)cc1 [4,5-bis(4-methoxyphenyl)-imidazo[1,2-a]thiolane-1-dioxide]
Production of prostaglandin E2 in fibroblasts [1]: considerably reduced | Inhibition of PGE2 production [1]: sufficient inhibition in the concentration range below one microgram per millimeter | NR50 irradiated (3T3 cells): 7.77 mg/L | NR50 non-irradiated (3T3 cells): >50 mg/L | Phototoxicity in comparison to the non-oxidized comparative compound (3T3 cells): considerably reduced phototoxicity | Quotient non-irradiated/irradiated PIF (3T3 cells): >6.4 | Production of leukotriene B4 in granulocytes [2]: considerably reduced | Inhibition of LTB4 release [2]: improved inhibition of LTB4 release

COc1ccc(-c2nc3n(c2-c2ccc(OC)cc2)CC[S+]3[O-])cc1 (stereo not shown) [4,5-bis(4-methoxyphenyl)-imidazo[1,2-a]thiolane-1-oxide]
Production of prostaglandin E2 in fibroblasts [1]: considerably reduced | Inhibition of PGE2 production [1]: sufficient inhibition in the concentration range below one microgram per millimeter | NR50 irradiated (3T3 cells): >42.3 mg/L | NR50 non-irradiated (3T3 cells): >100 mg/L | Phototoxicity in comparison to the non-oxidized comparative compound (3T3 cells): considerably reduced phototoxicity | Quotient non-irradiated/irradiated PIF (3T3 cells): >2.4 | Production of leukotriene B4 in granulocytes [2]: considerably reduced | Inhibition of LTB4 release [2]: improved inhibition of LTB4 release
